Results taken from patent US20020155192A1, “Yeast transport isoforms” (priority 2000, published 2002).
Read-outs that look alike come from different tables or passages of the source.

Key:
Assay type in all cases: biochemical
Odc2p [1] = target: T1, Odc2p (Saccharomyces cerevisiae, UniProt Q99297); assay: Effect of inhibitors and external compounds on the [14C]oxoglutarate/oxoglutarate exchange by proteoliposomes reconstituted with Odc2p; conditions: for effect of oxomonocarboxylates on the rate of uptake of 0.4 mM oxoglutarate (in words): 8 mM, 20 times greater than the substrate
T1 construct: made in house; host or cells: S. cerevisiae odc1Δodc2Δ (YPH499 background) carrying pYES2-based pODC2; purified from mitochondria on Ni-NTA agarose
T1 sequence (Q99297 1-307): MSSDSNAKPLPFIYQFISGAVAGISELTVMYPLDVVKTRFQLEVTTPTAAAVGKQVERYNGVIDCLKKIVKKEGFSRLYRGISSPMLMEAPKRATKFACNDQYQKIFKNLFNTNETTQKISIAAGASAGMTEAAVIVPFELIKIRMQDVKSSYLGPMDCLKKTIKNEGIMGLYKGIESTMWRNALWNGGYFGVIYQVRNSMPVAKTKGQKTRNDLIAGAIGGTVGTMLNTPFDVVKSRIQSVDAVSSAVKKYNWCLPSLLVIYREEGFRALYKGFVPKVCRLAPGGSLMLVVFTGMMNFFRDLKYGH
Protocol: (§1) Reconstitution of the ODC proteins into liposomes—Purified ODC proteins were reconstituted by cyclic removal of the detergent with a hydrophobic column (13). The composition of the initial mixture used for reconstitution was: 200 μl of purified isoform (0.3-0.4 μg of protein), 70 μl of 10% Triton X-114, 100 μl of 10% phospholipids in the form of sonicated liposomes, 20 mM oxoglutarate (except where otherwise indicated), 10 mM Pipes (pH 7.0), 0.7 mg of cardiolipin (Sigma) and water to a final volume of 700 μl. These components were mixed thoroughly, and the mixture was recycled 13 times through an Amberlite column (Supelco) (3.0 cm×0.5 cm) preequilibrated with a buffer containing 10 mM Pipes (pH 7.0) and with the substrate at the same concentration as in the starting mixture. All operations were performed at 4° C., except the passages through Amberlite, which were carried out at room temperature.
(§2) External substrate was removed from proteoliposomes on a Sephadex G-75 column preequilibrated with buffer F (50 mM NaCl and 10 mM PIPES, pH 7.0). Transport at 25° C. was started by adding [^14C]oxoglutarate (unless otherwise indicated) to the proteoliposomes, and terminated by addition of 30 mM pyridoxal 5′-phosphate and 10 mM bathophenanthroline (the “inhibitor-stop” method (13)). In controls, inhibitors were added with the labelled substrate. The external radioactivity was removed on Sephadex G-75 and the internal radioactivity was measured. […] The initial rate of transport was calculated in mmol/min per g protein from the time course of isotope equilibration (13). Various other transport activities were also assayed by the inhibitor-stop method. For efflux measurements, the internal substrate pool of the proteoliposomes was made radioactive by carrier-mediated exchange equilibration (13) with 0.1 mM [^14C]oxoglutarate added at high specific radioactivity. After 60 min, the residual external radioactivity was removed by passing the proteoliposomes again through a column of Sephadex G-75. Efflux was started by adding unlabelled external substrate or buffer F alone and terminated by adding the inhibitors indicated above.
(§3) In addition, the ability of non-radioactive potential substrates to inhibit the oxoglutarate/oxoglutarate exchange was examined.
Proteoliposomes were preloaded internally with 20 mM oxoglutarate and transport was initiated by the addition of 0.4 mM [^14C]oxoglutarate. The incubation time was 45 seconds. Thiol reagents and α-cyanocinnamate were added 2 min before the labelled substrate; the other inhibitors and external substrates were added together with [^14C]oxoglutarate. The final concentration of the inhibitors was 4 mM, except for mercurials (10 μM), carboxyatractyloside (0.1 mM), N-ethylmaleimide and α-cyanocinnamate (2 mM).

Odc1p [2] = target: T2, Odc1p (Saccharomyces cerevisiae, UniProt Q03028); assay: Dependence on internal substrate of [14C]oxoglutarate uptake into proteoliposomes reconstituted with recombinant Odc1p; conditions: for [14C]oxoglutarate transport: proteoliposomes preloaded with 20 mM internal substrate, 0.6 mM [14C]oxoglutarate, 45 seconds
T2 construct: made in house; host or cells: S. cerevisiae odc1Δodc2Δ (YPH499 background) carrying pYES2-based pODC1; purified from mitochondria on Ni-NTA agarose
T2 sequence (Q03028 1-310): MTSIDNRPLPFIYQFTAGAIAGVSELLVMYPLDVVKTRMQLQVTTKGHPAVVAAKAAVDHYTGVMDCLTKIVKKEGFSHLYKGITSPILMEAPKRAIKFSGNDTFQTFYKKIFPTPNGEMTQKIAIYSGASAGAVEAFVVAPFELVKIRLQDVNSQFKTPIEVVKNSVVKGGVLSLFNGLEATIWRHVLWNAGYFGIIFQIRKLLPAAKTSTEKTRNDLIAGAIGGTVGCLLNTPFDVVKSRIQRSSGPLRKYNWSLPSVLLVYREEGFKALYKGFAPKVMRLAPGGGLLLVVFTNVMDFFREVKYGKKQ
Protocol: as §1, §2
(§4) The substrate specificity of purified Odc1p and Odc2p was investigated further by measuring the uptake of [^14C]oxoglutarate into proteoliposomes which had been preloaded with various substrates.
(§5) Proteoliposomes were preloaded internally with various substrates (concentration, 20 mM). Transport was started by adding [^14C]oxoglutarate (final concentration, 0.6 mM) and terminated after 45 seconds.

Odc1p [3] = target: T2, Odc1p; assay: Effect of inhibitors and external compounds on the [14C]oxoglutarate/oxoglutarate exchange by proteoliposomes reconstituted with Odc1p; conditions: for effect of oxomonocarboxylates on the rate of uptake of 0.4 mM oxoglutarate (in words): 8 mM, 20 times greater than the substrate, data not shown
Protocol: FIG. 5. Effect of dicarboxylates and 2-oxodicarboxylates with different carbon chain length on the rate of [^14C]oxoglutarate uptake into proteoliposomes reconstituted with recombinant Odc1p. Proteoliposomes were preloaded with 20 mM oxoglutarate and reconstituted with recombinant Odc1p. Transport was initiated by the addition of 0.4 mM [^14C]oxoglutarate and terminated after 45 seconds. Oxalate, malonate, succinate, glutarate, adipate, pimelate, suberate (▪) and the corresponding 2-oxoacids (●) were added simultaneously with [1^4C]oxoglutarate at 4.0 mM concentration.
as §1, §2, §3
Proteoliposomes were preloaded internally with 20 mM oxoglutarate and transport was initiated by the addition of 0.4 mM [^14C]oxoglutarate.

Odc2p [4] = target: T1, Odc2p; assay: Dependence on internal substrate of [14C]oxoglutarate uptake into proteoliposomes reconstituted with recombinant Odc2p; conditions: for [14C]oxoglutarate transport: proteoliposomes preloaded with 20 mM internal substrate, 0.6 mM [14C]oxoglutarate, 45 seconds
Protocol: as §1, §2, §4, §5

Odc2p [5] = target: T1, Odc2p; assay: Homoexchange of other substrates in proteoliposomes reconstituted with Odc2p; conditions: internal concentration 10 mM, external concentration 1 mM
Protocol: as §2
(§6) In order to obtain further information about the mechanism of transport catalyzed by Odc1p and Odc2p, the efflux of [^14C]oxoglutarate from pre-labelled active proteoliposomes was investigated as it provides a more convenient assay for unidirectional transport (13).

Odc1p [6] = target: T2, Odc1p; assay: Homoexchange of other substrates in proteoliposomes reconstituted with Odc1p; conditions: internal concentration 10 mM, external concentration 1 mM
Protocol: as §2, §6

[7] = Odc1p, proteoliposomes preloaded with various substrates
[8] = Odc2p, proteoliposomes preloaded with various substrates
[9] = Odc1p, added with 0.4 mM [14C]oxoglutarate, 4.0 mM in FIG. 5, partly data not shown

Compound	[14C]oxoglutarate transport (Odc1p [2]; Odc1p) [mmol/min per g protein]	[14C]oxoglutarate uptake with the internal substrate (in words) (Odc1p [2]; [7])	[14C]oxoglutarate transport (Odc2p [4]; Odc2p) [mmol/min per g protein]	[14C]oxoglutarate uptake with the internal substrate (in words) (Odc2p [4]; [8])	other results
O=C(O)CCCCC(=O)O [Adipate]	65.0	taken up efficiently	16.7	taken up efficiently	effect of non-radioactive potential substrates on the rate of oxoglutarate uptake (in words) (Odc2p [1]): significant inhibition; effect of non-radioactive potential substrates on the rate of oxoglutarate uptake (in words) (Odc1p [3]): significant inhibition
C[N+](C)(C)CC(O)CC(=O)[O-] (stereo not drawn) [carnitine]	–	no exchange	–	no exchange	homoexchange catalyzed by the proteoliposomes (in words) (Odc2p [5]): did not catalyze homoexchanges; homoexchange catalyzed by the proteoliposomes (in words) (Odc1p [6]): did not catalyze homoexchanges
O=C(O)C[C@@H](O)C(=O)O [D-malate]	52.1	taken up efficiently	10.5	taken up efficiently	–
O=C(O)CCCCCC(=O)O [Pimelate]	48.4	taken up efficiently	10.4	taken up efficiently	effect of non-radioactive potential substrates on the rate of oxoglutarate uptake (in words) (Odc2p [1]): significant inhibition; effect of non-radioactive potential substrates on the rate of oxoglutarate uptake (in words) (Odc1p [3]): significant inhibition
phosphate	–	no exchange	–	no exchange	homoexchange catalyzed by the proteoliposomes (in words) (Odc2p [5]): did not catalyze homoexchanges; homoexchange catalyzed by the proteoliposomes (in words) (Odc1p [6]): did not catalyze homoexchanges
CCC(=O)C(=O)O [2-oxobutyrate]	–	no exchange	–	no exchange	effect of oxomonocarboxylates on the rate of uptake of 0.4 mM oxoglutarate (in words) (Odc2p [1]; Odc2p, data not shown): did not influence; effect of oxomonocarboxylates on the rate of uptake of 0.4 mM oxoglutarate (in words) (Odc1p [3]; Odc1p): did not influence
CCCC(=O)C(=O)O [2-oxovalerate]	–	no exchange	–	no exchange	effect of oxomonocarboxylates on the rate of uptake of 0.4 mM oxoglutarate (in words) (Odc2p [1]; Odc2p, data not shown): did not influence; effect of oxomonocarboxylates on the rate of uptake of 0.4 mM oxoglutarate (in words) (Odc1p [3]; Odc1p): did not influence
O=C(O)CC(=O)O [Malonate]	4.8	very low activity	2.2	very low activity	effect of non-radioactive potential substrates on the rate of oxoglutarate uptake (in words) (Odc2p [1]; Odc2p, data not shown): virtually no effect; effect of non-radioactive potential substrates on the rate of oxoglutarate uptake (in words) (Odc1p [3]; [9]): virtually no effect
NCCC[C@H](N)C(=O)O [ornithine]	–	–	–	–	homoexchange catalyzed by the proteoliposomes (in words) (Odc2p [5]): did not catalyze homoexchanges; homoexchange catalyzed by the proteoliposomes (in words) (Odc1p [6]): did not catalyze homoexchanges
NC(CCCCC(=O)O)C(=O)O (stereo not drawn) [2-aminopimelate]	–	no exchange	–	no exchange	–
NC(CCCC(=O)O)C(=O)O (stereo not drawn) [2-aminoadipate]	–	no exchange	–	no exchange	–
Nc1ncnc2c1ncn2[C@@H]1O[C@H](COP(=O)(O)OP(=O)(O)OP(=O)(O)O)[C@@H](O)[C@H]1O [ATP]	–	no exchange	–	no exchange	–
O=C(O)/C=C\C(=O)O [Maleate]	7.1	very low activity	2.6	very low activity	effect of non-radioactive potential substrates on the rate of oxoglutarate uptake (in words) (Odc2p [1]; Odc2p, data not shown): no effect; effect of non-radioactive potential substrates on the rate of oxoglutarate uptake (in words) (Odc1p [3]; [9]): no effect
O=C(O)CCCCCCC(=O)O [Suberate]	2.8	very low activity	0.4	very low activity	effect of non-radioactive potential substrates on the rate of oxoglutarate uptake (in words) (Odc2p [1]): virtually no effect; effect of non-radioactive potential substrates on the rate of oxoglutarate uptake (in words) (Odc1p [3]): virtually no effect
O=C(O)C(=O)O [oxalate]	–	no exchange	–	no exchange	effect of non-radioactive potential substrates on the rate of oxoglutarate uptake (in words) (Odc2p [1]; Odc2p, data not shown): virtually no effect; effect of non-radioactive potential substrates on the rate of oxoglutarate uptake (in words) (Odc1p [3]; [9]): virtually no effect
CC[C@H](O)C(=O)O [2-hydroxybutyrate]	–	no exchange	–	no exchange	–
O=S(O)(O)=S [thiosulfate]	–	–	–	–	[14C]oxoglutarate uptake with the internal substrate (in words) (Odc1p [2]): no exchange; [14C]oxoglutarate uptake with the internal substrate (in words) (Odc2p [4]): no exchange
O=C(O)/C=C/C(=O)O [Fumarate]	8.9	very low activity	2.4	very low activity	effect of non-radioactive potential substrates on the rate of oxoglutarate uptake (in words) (Odc2p [1]; Odc2p, data not shown): no effect; effect of non-radioactive potential substrates on the rate of oxoglutarate uptake (in words) (Odc1p [3]; [9]): no effect
